Data reported in paper PMC3269340, “Pharmacokinetics of memantine in rats and mice” (PLoS Currents, 2012).
Read-outs that look alike come from different tables or passages of the source.

Legend:
[1] = Human pharmacokinetics (literature); format: in vivo
[2] = Stability in mouse liver microsomes; format: in vitro ADME; details: 0.5 mg/mL pooled male microsomes, read-out: Intrinsic Clearance (Cl int) Liver Microsomes
Method: Memantine (1 μM) was incubated in 0.5 mg/mL of pooled male rat, mouse, or human liver microsomes (obtained commercially), in 0.1 M phosphate buffer at 37 °C. After pre-warming the mixture for 5 min, reactions were initiated by the addition of NADPH (1 mM). Aliquots (80 μL) were taken at 0, 5, 10, 20 and 40 min, and the reaction immediately terminated by adding into 80 μL of acetonitrile containing an analytical internal standard (IS). Samples were centrifuged and the supernatant fractions analyzed by LC-MS/MS with multiple reaction monitoring (MRM). All incubations were performed in duplicate. Testosterone was used as the positive control. The MRM area response ratio of the analyte over IS for Time=0(control) was set to 100%, the relative decrease in MRM area ratio intensity over time against that of the control (percent parent decrease) was used to determine the half-life (t1/2) of memantine in the incubation. Half-life values were calculated from the relationship:
t1/2 (min) = -0.693/λ, where λ is the slope of the Ln concentration vs time curve. The intrinsic clearance (Clint) was calculated as:
Clint = (0.693 x incubation volume (μL))/(t½ (min) x mg of microsomal protein)

human PEPT2 = molecular target: T1, human PEPT2 (Homo sapiens, UniProt Q16348); assay: Direct uptake transporter assay, PEPT2; format: in vitro ADME; details: for Accumulation in transporter transfected cells: PEPT2-transfected cells; for Accumulation in parental cells: parental CHO cells (PEPT2 line)
T1 construct: expressed in transfected cells; host or cells: CHO cells
T1 sequence (Q16348 1-729): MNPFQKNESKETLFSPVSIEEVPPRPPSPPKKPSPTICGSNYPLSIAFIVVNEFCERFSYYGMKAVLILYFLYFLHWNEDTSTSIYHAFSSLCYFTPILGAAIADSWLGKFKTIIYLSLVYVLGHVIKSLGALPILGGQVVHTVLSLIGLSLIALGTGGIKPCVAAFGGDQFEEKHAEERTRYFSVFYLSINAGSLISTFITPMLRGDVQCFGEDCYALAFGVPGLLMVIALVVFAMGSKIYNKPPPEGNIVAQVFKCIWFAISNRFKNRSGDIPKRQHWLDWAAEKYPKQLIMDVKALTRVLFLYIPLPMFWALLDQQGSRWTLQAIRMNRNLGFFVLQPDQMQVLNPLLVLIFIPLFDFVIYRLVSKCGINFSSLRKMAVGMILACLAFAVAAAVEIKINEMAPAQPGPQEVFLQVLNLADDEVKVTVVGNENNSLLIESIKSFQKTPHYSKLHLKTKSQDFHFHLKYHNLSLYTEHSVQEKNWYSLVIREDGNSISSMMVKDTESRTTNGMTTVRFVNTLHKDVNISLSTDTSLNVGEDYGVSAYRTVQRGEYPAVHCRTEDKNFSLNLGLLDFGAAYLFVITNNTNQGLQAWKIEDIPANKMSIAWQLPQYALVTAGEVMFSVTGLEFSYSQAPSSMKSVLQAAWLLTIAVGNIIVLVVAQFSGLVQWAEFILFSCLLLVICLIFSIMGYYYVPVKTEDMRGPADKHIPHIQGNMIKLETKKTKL
Method: (§1) To determine whether memantine is a substrate of the human OATP2B1 (OATP-B), OCT1, OCT2, OAT3, PEPT1, PEPT2 uptake transporters.
(§2) The potential for memantine to be a substrate of an uptake transporter was determined directly by comparing the uptake of memantine into cells expressing the selected uptake transporter with its uptake into control cells. Memantine was added to transporter-expressing and control cells at two concentrations (PEPT1 and PEPT2 100 and 300 µM, OCT1 and OCT2 50 and 100 µM, OATP2B1 100 and 300 µM), and incubated with cells for 2 and 20 min at 37±1°C (75 µL final incubation volume). The final concentrations of memantine were selected to be the IC50 of reporter substrate transport inhibition established in the indirect transporter assay and one order of magnitude lower. Incubations were carried out as described in the indirect uptake transporter assays. The concentration of memantine was determined by LC-MS/MS.

human OCT1 = molecular target: T2, human OCT1 (Homo sapiens, UniProt O15245); assay: Direct uptake transporter assay, OCT1; format: in vitro ADME; details: for Accumulation in transporter transfected cells: OCT1-transfected cells; for Accumulation in parental cells: parental CHO cells (OCT1 line)
T2 construct: expressed in transfected cells; host or cells: CHO cells
T2 sequence (O15245 1-554): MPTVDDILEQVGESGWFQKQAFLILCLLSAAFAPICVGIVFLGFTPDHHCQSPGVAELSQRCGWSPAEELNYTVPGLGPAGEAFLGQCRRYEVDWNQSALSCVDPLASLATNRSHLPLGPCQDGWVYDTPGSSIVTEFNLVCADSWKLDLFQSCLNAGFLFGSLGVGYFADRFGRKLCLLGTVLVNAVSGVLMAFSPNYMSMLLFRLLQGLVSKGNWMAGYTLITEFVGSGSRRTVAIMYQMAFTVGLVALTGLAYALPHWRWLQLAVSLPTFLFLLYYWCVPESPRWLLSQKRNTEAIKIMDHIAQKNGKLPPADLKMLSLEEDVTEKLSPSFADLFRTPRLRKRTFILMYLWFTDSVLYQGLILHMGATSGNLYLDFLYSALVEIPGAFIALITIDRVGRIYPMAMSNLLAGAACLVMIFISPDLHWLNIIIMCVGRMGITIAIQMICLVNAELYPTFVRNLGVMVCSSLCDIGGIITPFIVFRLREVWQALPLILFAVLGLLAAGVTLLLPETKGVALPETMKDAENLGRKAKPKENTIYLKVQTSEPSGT
Method: as §1
as §2, with “The final concentrations of memantine were selected to be the IC50 of reporter substrate transport inhibition established in the indirect transporter assay and one order of magnitude lower.” left out

[3] = system: Alzheimer's disease patients; details: cited from earlier work

In the case of `CC12CC3CC(C)(C1)CC(N)(C3)C2` [memantine], the “Contribution of active transport to clearance” value [1] is reported as 30-40%, the “renal clearance higher than human GFR of 125 mL/min” value [1] is reported as “approximately 30%” and the “total systemic clearance, times higher than GFR” value [1] is reported as ~1.4 fold. The “total systemic clearance, times higher than GFR” value ([1]; listed as Memantine) was ~ 1.4 fold, the clearance ([1]; plasma, oral, 10 mg, estimated, read-out: Cl p (converted)) was 2.67 mL/min/kg and the microsomal CLint at 1 μM [2] was < 13.9 µL/min/mg. For the same compound, the “Highest Fold Activation” value (human PEPT2; PEPT2, 100µM, 20 min) was 0.97 (100µM, 20 min), the “Accumulation in transporter transfected cells” value (human PEPT2; 2 min, 100 µM) was 937 pmol/mg and the “Accumulation in transporter transfected cells” value (human PEPT2; 2 min, 300 µM) was 1871 pmol/mg. For the same compound, the “Accumulation in transporter transfected cells” value (human PEPT2; 20 min, 100 µM) was 897 pmol/mg, the “Accumulation in transporter transfected cells” value (human PEPT2; 20 min, 300 µM) was 1759 pmol/mg and the “substrate of PEPT2 uptake transporter” value (human PEPT2; no preferential accumulation in transfected over parental cells) was “not a substrate”. The “Accumulation in parental cells” value (human PEPT2; 2 min, 100 µM) was 965 pmol/mg, the “Accumulation in parental cells” value (human PEPT2; 2 min, 300 µM) was 2011 pmol/mg and the “Accumulation in parental cells” value (human PEPT2; 20 min, 100 µM) was 1219 pmol/mg. For the same compound, the “Accumulation in parental cells” value (human PEPT2; 20 min, 300 µM) was 2056 pmol/mg, the “active transport by OCT1” value (human OCT1) was “not actively transported” and the “Highest Fold Activation” value (human OCT1; OCT1) was “Not observed”. The “Accumulation in transporter transfected cells” value (human OCT1; 2 min, 50 µM) was 3818 pmol/mg, the “Accumulation in transporter transfected cells” value (human OCT1; 2 min, 100 µM) was 5878 pmol/mg and the “Accumulation in transporter transfected cells” value (human OCT1; 20 min, 50 µM) was 5540 pmol/mg. The “Accumulation in transporter transfected cells” value (human OCT1; 20 min, 100 µM) was 9190 pmol/mg, the “Accumulation in parental cells” value (human OCT1; 2 min, 50 µM) was 3894 pmol/mg and the “Accumulation in parental cells” value (human OCT1; 2 min, 100 µM) was 6337 pmol/mg. The “Accumulation in parental cells” value (human OCT1; 20 min, 50 µM) was 5672 pmol/mg, the “Accumulation in parental cells” value (human OCT1; 20 min, 100 µM) was 9576 pmol/mg and the “efficacy in dementia patients” value ([3]; 10 mg single daily dose for 12 weeks) was “demonstrated efficacy”. The “efficacy in moderate to severe AD” value ([3]; humans, 10 mg twice daily, 6-month study) was “efficacious”.
